Measurements published in US12448394B2, “Heterocyclic pyrazole derivatives as type III receptor tyrosine kinase inhibitors” (DEVELOPMENT CENTER FOR BIOTECHNOLOGY, priority 2019, dated 2025).

Key:
[1] = target: T1, FLT3-D835Y mutant kinase (Homo sapiens, UniProt P36888, D835Y); assay: FLT3-D835Y mutant kinase assay (AlphaScreen); format: biochemical; conditions: read-out: Ranking of IC50 values, FLT3-D835Y
T1 construct: purchased SignalChem
T1 sequence (P36888 27-993 D835Y): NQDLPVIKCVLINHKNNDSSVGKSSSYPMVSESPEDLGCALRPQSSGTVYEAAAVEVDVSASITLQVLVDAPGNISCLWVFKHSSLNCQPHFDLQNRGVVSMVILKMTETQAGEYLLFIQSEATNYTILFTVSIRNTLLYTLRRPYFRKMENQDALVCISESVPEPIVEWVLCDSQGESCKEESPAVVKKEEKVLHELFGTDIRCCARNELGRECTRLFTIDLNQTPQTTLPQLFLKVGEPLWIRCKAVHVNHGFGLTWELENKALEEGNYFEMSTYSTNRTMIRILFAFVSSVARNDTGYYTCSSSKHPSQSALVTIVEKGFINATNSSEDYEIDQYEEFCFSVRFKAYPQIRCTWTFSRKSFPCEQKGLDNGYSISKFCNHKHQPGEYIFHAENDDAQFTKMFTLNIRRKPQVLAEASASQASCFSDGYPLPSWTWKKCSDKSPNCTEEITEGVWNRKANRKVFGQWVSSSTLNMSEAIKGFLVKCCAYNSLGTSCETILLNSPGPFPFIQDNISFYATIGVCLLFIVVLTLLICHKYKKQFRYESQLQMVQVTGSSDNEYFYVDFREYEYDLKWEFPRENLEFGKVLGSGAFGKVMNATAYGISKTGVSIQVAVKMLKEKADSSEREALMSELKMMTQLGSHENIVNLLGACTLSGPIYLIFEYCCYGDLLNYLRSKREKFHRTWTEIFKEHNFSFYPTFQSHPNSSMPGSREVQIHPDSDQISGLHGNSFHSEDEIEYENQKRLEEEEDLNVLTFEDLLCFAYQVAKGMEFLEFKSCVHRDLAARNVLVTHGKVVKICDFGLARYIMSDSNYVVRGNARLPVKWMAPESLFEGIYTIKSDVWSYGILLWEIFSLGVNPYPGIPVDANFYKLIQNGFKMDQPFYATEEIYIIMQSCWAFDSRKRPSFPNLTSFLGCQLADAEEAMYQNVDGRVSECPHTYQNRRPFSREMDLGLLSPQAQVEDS
How it was run: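 Recombinant FLT3-D835Y (1 ng) phosphorylated biotin-poly(Glu4:Tyr1) at 10 μM ATP, pH 7.0 MOPS buffer with 10 mM MgCl2, for 30 min at 30 °C, stopped with EDTA. Product was read by AlphaScreen. IC50 came from serial dilutions run in duplicate.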

[2] = target: T2, PDGFRα kinase (Homo sapiens, UniProt P16234); assay: PDGFRα kinase assay (AlphaScreen); format: biochemical; conditions: read-out: Ranking of IC50 values, PDGFRα
T2 construct: purchased SignalChem
How it was run: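 Recombinant PDGFRα (1.5 ng) phosphorylated biotinylated poly(Glu4:Tyr1) with 10 μM ATP in MOPS pH 7.0 with 10 mM MgCl2, 30 min at 30 °C, stopped with EDTA. Product detected by AlphaScreen; IC50 from serial dilutions run in duplicate.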

[3] = tested on: MV4-11 human acute myeloid leukemia cell with FLT3-ITD mutation; assay: MV4-11 cell proliferation assay (CellTiter 96); format: cell-based; conditions: Homo sapiens, MV4-11, 72 h, MV4-11 cells, 72 hours treatment, CellTiter96; read-out: anti-proliferation activity MV4-11 (FLT3-ITD), IC50 ranking
How it was run: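 Cells seeded at 6500/well in IMDM with 10% heat-inactivated FBS, left overnight at 37 °C, 5% CO2, then exposed to increasing compound concentrations for 72 h. Viability read as absorbance at 490 nm after 2–4 h with CellTiter96 AQueous One reagent.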

T2 sequence (P16234 24-1089): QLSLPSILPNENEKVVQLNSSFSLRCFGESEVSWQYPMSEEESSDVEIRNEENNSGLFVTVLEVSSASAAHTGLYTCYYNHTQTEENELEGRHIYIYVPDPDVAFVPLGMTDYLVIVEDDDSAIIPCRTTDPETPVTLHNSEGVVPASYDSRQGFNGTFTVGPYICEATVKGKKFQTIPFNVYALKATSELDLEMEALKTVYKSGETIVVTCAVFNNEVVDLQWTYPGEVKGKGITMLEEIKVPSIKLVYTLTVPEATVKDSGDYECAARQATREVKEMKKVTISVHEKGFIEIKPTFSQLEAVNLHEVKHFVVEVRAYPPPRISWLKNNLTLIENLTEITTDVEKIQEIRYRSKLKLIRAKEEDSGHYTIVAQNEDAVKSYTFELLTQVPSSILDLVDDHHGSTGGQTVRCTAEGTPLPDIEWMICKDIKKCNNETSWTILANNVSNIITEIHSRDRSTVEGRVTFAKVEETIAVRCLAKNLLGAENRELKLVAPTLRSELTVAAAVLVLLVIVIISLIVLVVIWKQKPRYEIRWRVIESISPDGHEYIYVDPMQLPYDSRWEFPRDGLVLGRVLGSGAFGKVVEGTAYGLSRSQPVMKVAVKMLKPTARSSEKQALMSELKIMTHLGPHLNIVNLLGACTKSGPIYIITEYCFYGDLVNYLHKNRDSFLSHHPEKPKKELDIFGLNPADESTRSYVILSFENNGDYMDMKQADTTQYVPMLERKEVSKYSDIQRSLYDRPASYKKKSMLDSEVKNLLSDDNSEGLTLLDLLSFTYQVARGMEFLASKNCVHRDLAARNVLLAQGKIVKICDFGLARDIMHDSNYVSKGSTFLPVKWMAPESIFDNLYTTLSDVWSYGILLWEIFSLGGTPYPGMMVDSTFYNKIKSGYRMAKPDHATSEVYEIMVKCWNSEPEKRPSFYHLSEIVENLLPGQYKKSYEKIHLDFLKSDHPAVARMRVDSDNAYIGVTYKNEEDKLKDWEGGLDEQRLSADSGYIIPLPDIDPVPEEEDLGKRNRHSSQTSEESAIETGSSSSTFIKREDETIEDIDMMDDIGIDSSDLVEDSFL

| Structure (SMILES) | IC50 [1] | IC50 [2] | IC50 [3] |
| --- | --- | --- | --- |
| CN(C)c1ccc(-c2cc3c(s2)Cc2c(-c4ccc5cnn(C)c5c4)n[nH]c2-3)cn1 [Compound 5, N,N-dimethyl-5-(3-(1-methyl-1H-indazol-6-yl)-1,4-dihydrothieno [2′,3′:4,5]cyclopenta[1,2-c]pyrazol-6-yl)pyridin-2-amine] | 1 to 10 nM | 10 to 30 nM | 30 to 100 nM |
| Cn1ncc2ccc(-c3n[nH]c4c3Cc3sc(-c5ccc(CN6CCCC6=O)cc5)cc3-4)cc21 [Compound 64, 1-(4-(3-(1-methyl-1H-indazol-6-yl)-1,4-dihydro-thieno[2′,3′:4,5]cyclopenta [1,2-c]pyrazol-6-yl)benzyl)pyrrolidin-2-one] | 1 to 10 nM | 10 to 30 nM | < 30 nM |
| Cn1ncc2ccc(-c3n[nH]c4c3Cc3sc(-c5ccc(OCCN6CCOCC6)cc5)cc3-4)cc21 [Compound 69, 4-(2-(4-(3-(1-methyl-1H-indazol-6-yl)-1,4-dihydro-thieno[2′,3′:4,5]cyclopenta [1,2-c]pyrazol-6-yl)phenoxy)ethyl)morpholine] | < 1 nM | 10 to 30 nM | < 30 nM |
| Cn1ncc2ccc(-c3n[nH]c4c3Cc3sc(-c5cncc(C(=O)N6CCOCC6)c5)cc3-4)cc21 [Compound 31, (5-(3-(1-methyl-1H-indazol-6-yl)-1,4-dihydrothieno[2′,3′:4,5]cyclopenta[1,2-c]pyrazol-6-yl)pyridin-3-yl) (morpholino)methanone] | < 1 nM | 100 to 300 nM | < 30 nM |
| C[C@H]1COCCN1Cc1ccc(-c2cc3c(s2)Cc2c(-c4ccc5cnn(C)c5c4)n[nH]c2-3)cc1 [Compound 75, (S)-3-methyl-4-(4-(3-(1-methyl-1H-indazol-6-yl)-1,4-dihydrothieno [2′,3′:4,5]cyclopenta [1,2-c]pyrazol-6-yl)benzyl)morpholine] | < 1 nM | 1 to 10 nM | < 30 nM |
| Cc1cc(-c2cc3c(s2)Cc2c(-c4ccc5cnn(C)c5c4)n[nH]c2-3)ccc1CN1CCOCC1 [Compound 26, 4-(2-methyl-4-(3-(1-methyl-1H-indazol-6-yl)-1,4-dihydrothieno[2′,3′:4,5]cyclopenta[1,2-c]pyrazol-6-yl)benzyl)morpholine] | 1 to 10 nM | 10 to 30 nM | 100 to 300 nM |
| CCC(c1ccc(-c2cc3c(s2)Cc2c(-c4ccc5cnn(C)c5c4)n[nH]c2-3)cc1)N1CCOCC1 (stereo not drawn) [Compound 28, 4-(1-(4-(3-(1-methyl-1H-indazol-6-yl)-1,4-dihydro-thieno[2′,3′:4,5]cyclopenta [1,2-c]pyrazol-6-yl)phenyl)propyl)morpholine] | 1 to 10 nM | 10 to 30 nM | 30 to 100 nM |
| Cn1ncc2ccc(-c3n[nH]c4c3Cc3sc(-c5ccc(C(=O)N6CCOCC6)nc5)cc3-4)cc21 [Compound 23, (5-(3-(1-methyl-1H-indazol-6-yl)-1,4-dihydro-thieno[2′,3′:4,5]cyclopenta [1,2-c]pyrazol-6-yl)pyridin-2-yl)(morpholino) methanone] | < 1 nM | 1 to 10 nM | < 30 nM |
| c1cc(-c2cc3c(s2)Cc2c(-c4ccc5cn[nH]c5c4)n[nH]c2-3)ccc1CN1CCOCC1 [Compound 6, 4-(4-(3-(1H-indazol-6-yl)-1,4-dihydrothieno[2′,3′:4,5]cyclopenta[1,2-c]pyrazol-6-yl)benzyl)morpholine] | < 1 nM | 1 to 10 nM | < 30 nM |
| Cn1ncc2ccc(-c3n[nH]c4c3Cc3sc(-c5ccc(CN6CCCC6)cc5)cc3-4)cc21 [Compound 99, 3-(1-methyl-1H-indazol-6-yl)-6-(4-(pyrrolidin-1-ylmethyl)phenyl)-1,4-dihydrothieno[2′,3′:4,5] cyclopenta[1,2-c]pyrazole] | < 1 nM | 1 to 10 nM | < 30 nM |
| Cn1ncc2ccc(-c3n[nH]c4c3Cc3sc(-c5ccc(CN6CCCCC6=O)cc5)cc3-4)cc21 [Compound 61, 1-(4-(3-(l-methyl-1H-indazol-6-yl)-1,4-dihydro-thieno[2′,3′:4,5]cyclopenta [1,2-c]pyrazol-6-yl)benzyl)piperidin-2-one] | < 1 nM | 1 to 10 nM | < 30 nM |
| C[C@@H]1COCCN1Cc1ccc(-c2cc3c(s2)Cc2c(-c4ccc5cnn(C)c5c4)n[nH]c2-3)cc1 [Compound 74, (R)-3-methyl-4-(4-(3-(1-methyl-1H-indazol-6-yl)-1,4-dihydrothieno [2′,3′:4,5]cyclopenta [1,2-c]pyrazol-6-yl)benzyl)morpholine] | < 1 nM | 1 to 10 nM | < 30 nM |
| Cn1ncc2ccc(-c3n[nH]c4c3Cc3sc(-c5cc(F)c(CN6CCOCC6)c(F)c5)cc3-4)cc21 [Compound 53, 4-(2,6-difluoro-4-(3-(1-methyl-1H-indazol-6-yl)-1,4-dihydrothieno [2′,3′:4,5]cyclopenta [1,2-c]pyrazol-6-yl)benzyl)morpholine] | 1 to 10 nM | 30 to 100 nM | 30 to 100 nM |
| Cn1ncc2ccc(-c3n[nH]c4c3Cc3sc(-c5cccc(CN6CCOCC6)c5)cc3-4)cc21 [Compound 13, 4-(3-(3-(1-methyl-1H-indazol-6-yl)-1,4-dihydro-thieno[2′,3′:4,5]cyclopenta [1,2-c]pyrazol-6-yl)benzyl) morpholine] | 1 to 10 nM | 10 to 30 nM | 30 to 100 nM |
| Cn1ncc2ccc(-c3n[nH]c4c3Cc3sc(-c5ccc(CN6CCOCC6)cc5)cc3-4)cc21 [Compound 8, 4-(4-(3-(1-methyl-1H-indazol-6-yl)-1,4-dihydro-thieno[2′,3′:4,5]cyclopenta [1,2-c]pyrazol-6-yl)benzyl) morpholine] | 1 to 10 nM | 1 to 10 nM | < 30 nM |
| CN(C)C(=O)c1ccc(-c2cc3c(s2)Cc2c(-c4ccc5cnn(C)c5c4)n[nH]c2-3)cc1 [Compound 49, N,N-dimethyl-4-(3-(1-methyl-1H-indazol-6-yl)-1,4-dihydrothieno [2′,3′:4,5]cyclopenta [1,2-c]pyrazol-6-yl) benzamide] | < 1 nM | 1 to 10 nM | < 30 nM |
| Cn1ncc2ccc(-c3n[nH]c4c3Cc3sc(-c5ccc(CN6CCSCC6)cc5)cc3-4)cc21 [Compound 39, 3-(1-methyl-1H-indazol-6-yl)-6-(4-(thiomorpho-linomethyl)phenyl)-1,4-dihydrothieno[2′,3′:4,5] cyclopenta[1,2-c]pyrazole] | 1 to 10 nM | 10 to 30 nM | 30 to 100 nM |
| CN(c1ccc(-c2cc3c(s2)Cc2c(-c4ccc5cnn(C)c5c4)n[nH]c2-3)cc1)C1CCOCC1 [Compound 73, N-methyl-N-(4-(3-(1-methyl-1H-indazol-6-yl)-1,4-dihydrothieno [2′,3′:4,5]cyclopenta [1,2-c]pyrazol-6-yl)phenyl)tetrahydro-2H-pyran-4-amine] | 1 to 10 nM | 30 to 100 nM | 100 to 300 nM |
| Cc1ccc(-c2cc3c(s2)Cc2c(-c4ccc5cnn(C)c5c4)n[nH]c2-3)cn1 [Compound 11, 3-(1-methyl-1H-indazol-6-yl)-6-(6-methylpyridin-3-yl)-1,4-dihydrothieno [2′,3′:4,5]cyclopenta[1,2-c] pyrazole] | < 1 nM | 10 to 30 nM | < 30 nM |
| Cn1ncc2ccc(-c3n[nH]c4c3Cc3sc(C5=CCN(C(=O)N6CCOCC6)CC5)cc3-4)cc21 [Compound 57, (4-(3-(1-methyl-1H-indazol-6-yl)-1,4-dihydro-thieno[2′,3′:4,5]cyclopenta [1,2-c]pyrazol-6-yl)-3,6-dihydropyridin-1(2H)-yl) (morpholino)methanone] | < 1 nM | 10 to 30 nM | < 30 nM |
| c1cc(CN2CCOCC2)ncc1-c1cc2c(s1)Cc1c(-c3ccc4cn[nH]c4c3)n[nH]c1-2 [Compound 18, 4-((5-(3-(1H-indazol-6-yl)-1,4-dihydrothieno[2′,3′:4,5]cyclopenta[1,2-c]pyrazol-6-yl)pyridin-2-yl)methyl) morpholine] | 1 to 10 nM | 1 to 10 nM | < 30 nM |
